Measured values: publication PMC6017976, “Enzyme Kinetics and Molecular Docking Studies on Cytochrome 2B6, 2C19, 2E1, and 3A4 Activities by Sauchinone” (Molecules : A Journal of Synthetic Chemistry and Natural …, 2018)

Assays:
[1] = Drug interaction of sibutramine, clopidogrel, or chlorzoxazone with sauchinone in mice (plasma pharmacokinetics); conditions: for CL/F / Tmax / half-life / AUC: male, ICR, mouse, in vivo; for AUC: plasma, 1 mg/kg sibutramine, 10 mg/kg clopidogrel or 10 mg/kg chlorzoxazone
Method: For analysis of sibutramine, a mobile phase was made, consisting of 10 mM ammonium acetate adjusted to pH 4 with acetic acid: acetonitrile (94:6, v/v) and was eluted at 0.2 mL/min. […] Other parameters of mass spectrometers were the same as those used for analysis of metabolites of CYP substrates.
Male ICR mice (5 weeks old, weight of 20–25 g) were purchased from the Charles River Company Korea (Orient, Seoul, Korea). […] They were provided free access to food and water. These mice were allowed to acclimate to these conditions for three days prior to inclusion in the experiments.
Surgical procedures for mice were conducted under tiletamine HCl and zolazepam HCl anesthesia by intramuscular injection. The carotid artery (for blood sampling) cannulation was carried out using catheters (BASi, West Lafayette, IN, USA). Drug administration and blood sampling were performed at 5 h after surgery [55]. […] Other procedures were the same as those used for the sibutramine pharmacokinetic study.
AUC was calculated using the trapezoidal rule method. Standard methods [56] were used to calculate pharmacokinetic parameters using non-compartmental analysis (WinNonlin 2.1; Pharmasight Corp., Mountain View, CA, USA). Cmax and Tmax were read reversibly from extrapolated data.

[2] = target: T1, CYP2C19 (Homo sapiens, UniProt P33261); assay: Reversible inhibition (RI) of CYP2C19 activity in HLMs (cocktail probe assay); type: in vitro ADME; conditions: S-mephenytoin hydroxylation, 100 μM S-mephenytoin, 30 min incubation
T1 construct: pooled human liver microsomes from a mixed pool of 50 donors; tissue BD Gentest Co. 452156; host or cells: human liver microsomes, pool of 50 donors
T1 sequence (P33261 whole entry): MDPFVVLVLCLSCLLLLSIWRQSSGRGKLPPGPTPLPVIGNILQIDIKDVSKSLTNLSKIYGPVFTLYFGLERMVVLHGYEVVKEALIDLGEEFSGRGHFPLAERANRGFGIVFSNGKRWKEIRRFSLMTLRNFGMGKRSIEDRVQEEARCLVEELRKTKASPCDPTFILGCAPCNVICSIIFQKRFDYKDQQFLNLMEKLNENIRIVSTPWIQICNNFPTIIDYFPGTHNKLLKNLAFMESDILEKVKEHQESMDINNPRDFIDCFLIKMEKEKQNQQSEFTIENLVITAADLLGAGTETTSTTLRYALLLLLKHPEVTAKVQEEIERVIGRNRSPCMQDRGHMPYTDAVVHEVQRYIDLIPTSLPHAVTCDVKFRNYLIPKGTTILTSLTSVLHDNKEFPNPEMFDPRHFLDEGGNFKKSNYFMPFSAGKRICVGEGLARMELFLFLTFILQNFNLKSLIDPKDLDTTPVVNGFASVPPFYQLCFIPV

[3] = mice, drug with sauchinone versus drug alone, decrease
[4] = mice, drug with sauchinone versus drug alone, increase

CC(C)CC(N(C)C)C1(c2ccc(Cl)cc2)CCC1 (stereo not shown) [Sibutramine, sibutramine]
CL/F [1]: 0.253 ± 0.0208 mL/min/kg | Tmax [1]: 0.25 h | half-life [1]: 3.28 ± 0.598 h | CL/F ([1]; po): 0.205 ± 0.0186 mL/min/kg | Tmax ([1]; po): 0.25 h | half-life ([1]; po): 2.75 ± 0.53 h | AUC ([1]; po, mice, with sauchinone (100 mg/kg oral, 30 min before)): 82000 ng·h/mL | AUC ([1]; po, mice, without sauchinone (vehicle), oral administration per Table 3): 66300 ng·h/mL | CL/F slower with sauchinone than drug alone (by %) [1, 3]: 19.0% | t1/2 smaller with sauchinone than drug alone (by %) [1, 3]: 16.2% | AUC greater with sauchinone than drug alone (by %) [1, 4]: 23.6% | Cmax higher with sauchinone than drug alone (by %) [1, 4]: 41.5%

COc1ccc2[nH]c([S+]([O-])Cc3ncc(C)c(OC)c3C)nc2c1 (stereo not shown) [omeprazole, reference compound]
IC50 [2]: 6.59 µM
